Laboratory results as given in PMC6009956, “Design, synthesis and biological activity of N^4-phenylsubstituted-7H-pyrrolo[2,3-d]pyrimidin-4-amines as dual inhibitors of aurora kinase A and epidermal growth factor receptor kinase” (Journal of Enzyme Inhibition and Medicinal Chemistry, 2017).
Read-outs that look alike come from different tables or passages of the source.

Experiments:
[1] = molecular target: T1, aurora A kinase (AURKA) (Homo sapiens, UniProt O14965); assay: ADP-Glo kinase assay, Aurora A; format: biochemical
T1 construct: purchased BPS Bioscience (assay run externally by the vendor)
T1 sequence (O14965 1-403): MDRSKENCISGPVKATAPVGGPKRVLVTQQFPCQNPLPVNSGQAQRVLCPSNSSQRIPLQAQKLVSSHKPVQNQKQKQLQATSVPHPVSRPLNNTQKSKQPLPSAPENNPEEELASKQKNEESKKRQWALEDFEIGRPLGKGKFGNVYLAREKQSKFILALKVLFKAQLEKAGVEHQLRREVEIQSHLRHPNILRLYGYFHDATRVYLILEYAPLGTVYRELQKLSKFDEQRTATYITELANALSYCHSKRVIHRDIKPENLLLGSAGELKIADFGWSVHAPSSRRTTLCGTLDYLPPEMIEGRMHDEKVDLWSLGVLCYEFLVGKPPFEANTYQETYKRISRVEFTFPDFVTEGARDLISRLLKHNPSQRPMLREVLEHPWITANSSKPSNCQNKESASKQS

[2] = molecular target: EGFR (Homo sapiens, UniProt P00533); assay: ADP-Glo kinase assay, EGFR; format: biochemical; design: purchased BPS Bioscience (assay run externally by the vendor)
[3] = 10 µM ATP, triplicate, read-out: AURKA IC50 ± SD
[4] = 10 µM ATP/0.2 mg/ml Kemptide, read-out: Aurora A IC50 (dose-response curve, supplement)
[5] = 10 µM ATP, triplicate, read-out: EGFR IC50 ± SD
[6] = 10 µM ATP/0.2 mg/ml Poly-Glu-Tyr, read-out: EGFR IC50 (dose-response curve, supplement)

Sequence of EGFR (P00533 25-1210): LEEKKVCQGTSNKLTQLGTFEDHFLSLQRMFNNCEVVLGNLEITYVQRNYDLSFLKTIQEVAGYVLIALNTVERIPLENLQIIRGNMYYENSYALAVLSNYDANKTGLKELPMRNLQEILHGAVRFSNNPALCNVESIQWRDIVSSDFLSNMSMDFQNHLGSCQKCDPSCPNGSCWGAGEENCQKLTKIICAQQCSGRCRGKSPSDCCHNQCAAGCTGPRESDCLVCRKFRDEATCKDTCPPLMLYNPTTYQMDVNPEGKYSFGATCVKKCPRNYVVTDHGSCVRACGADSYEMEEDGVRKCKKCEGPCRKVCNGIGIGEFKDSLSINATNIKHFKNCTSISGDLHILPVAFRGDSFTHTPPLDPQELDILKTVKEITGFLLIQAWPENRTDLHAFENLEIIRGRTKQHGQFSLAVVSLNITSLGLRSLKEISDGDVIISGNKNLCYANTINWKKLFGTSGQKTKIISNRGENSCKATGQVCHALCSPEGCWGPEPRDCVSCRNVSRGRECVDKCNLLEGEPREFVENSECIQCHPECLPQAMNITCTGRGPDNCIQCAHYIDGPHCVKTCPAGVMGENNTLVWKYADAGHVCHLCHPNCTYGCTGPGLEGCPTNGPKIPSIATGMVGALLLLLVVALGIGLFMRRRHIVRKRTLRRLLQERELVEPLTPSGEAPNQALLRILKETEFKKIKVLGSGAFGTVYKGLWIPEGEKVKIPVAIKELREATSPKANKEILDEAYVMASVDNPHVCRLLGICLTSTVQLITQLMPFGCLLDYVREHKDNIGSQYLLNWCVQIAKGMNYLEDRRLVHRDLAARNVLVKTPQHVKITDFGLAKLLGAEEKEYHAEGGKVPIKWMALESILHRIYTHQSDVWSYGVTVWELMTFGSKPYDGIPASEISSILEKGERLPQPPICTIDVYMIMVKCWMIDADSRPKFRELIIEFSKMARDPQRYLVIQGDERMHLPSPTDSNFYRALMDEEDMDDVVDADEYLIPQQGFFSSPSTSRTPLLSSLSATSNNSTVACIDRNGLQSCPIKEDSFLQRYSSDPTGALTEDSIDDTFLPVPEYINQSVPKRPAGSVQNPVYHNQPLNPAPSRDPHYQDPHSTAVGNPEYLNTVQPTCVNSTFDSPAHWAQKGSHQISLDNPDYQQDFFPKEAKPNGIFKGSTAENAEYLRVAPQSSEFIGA

Clc1ccc(Nc2ncnc3[nH]ccc23)cc1 [Compound 4, N^4-(4-chlorophenyl)-7H-pyrrolo[2,3-d]pyrimidine-4-amine]
IC50 [1, 3]: 5150 ± 370 nM | IC50 [1, 4]: 5200 nM | Aurora A % Activity Set1 ([1]; Log[nM] 0): 98% | Aurora A % Activity Set2 ([1]; Log[nM] 0): 101% | Aurora A % Activity Set3 ([1]; Log[nM] 0): 97% | Aurora A % Activity Set1 ([1]; Log[nM] 1.0): 99% | Aurora A % Activity Set2 ([1]; Log[nM] 1.0): 98% | Aurora A % Activity Set3 ([1]; Log[nM] 1.0): 100% | Aurora A % Activity Set1 ([1]; Log[nM] 1.5): 104% | Aurora A % Activity Set2 ([1]; Log[nM] 1.5): 108% | Aurora A % Activity Set3 ([1]; Log[nM] 1.5): 102% | Aurora A % Activity Set1 ([1]; Log[nM] 2.0): 105% | Aurora A % Activity Set2 ([1]; Log[nM] 2.0): 107% | Aurora A % Activity Set3 ([1]; Log[nM] 2.0): 104% | Aurora A % Activity Set1 ([1]; Log[nM] 2.5): 103% | Aurora A % Activity Set2 ([1]; Log[nM] 2.5): 99% | Aurora A % Activity Set3 ([1]; Log[nM] 2.5): 101% | Aurora A % Activity Set1 ([1]; Log[nM] 3.0): 88% | Aurora A % Activity Set2 ([1]; Log[nM] 3.0): 93% | Aurora A % Activity Set3 ([1]; Log[nM] 3.0): 86% | Aurora A % Activity Set1 ([1]; Log[nM] 3.5): 66% | Aurora A % Activity Set2 ([1]; Log[nM] 3.5): 69% | Aurora A % Activity Set3 ([1]; Log[nM] 3.5): 68% | Aurora A % Activity Set1 ([1]; Log[nM] 4.0): 25% | Aurora A % Activity Set2 ([1]; Log[nM] 4.0): 28% | Aurora A % Activity Set3 ([1]; Log[nM] 4.0): 25% | Aurora A % Activity Set1 ([1]; Log[nM] 4.5): 11% | Aurora A % Activity Set2 ([1]; Log[nM] 4.5): 11% | Aurora A % Activity Set3 ([1]; Log[nM] 4.5): 11% | Aurora A % Activity Set1 ([1]; Log[nM] 5.0): 9% | Aurora A % Activity Set2 ([1]; Log[nM] 5.0): 10% | Aurora A % Activity Set3 ([1]; Log[nM] 5.0): 9% | IC50 [2, 5]: 84.9 ± 15.9 nM | IC50 [2, 6]: 84.5 nM | EGFR % Activity Set1 ([2]; Log[nM] 0): 102% | EGFR % Activity Set2 ([2]; Log[nM] 0): 96% | EGFR % Activity Set3 ([2]; Log[nM] 0): 97% | EGFR % Activity Set1 ([2]; Log[nM] 1.0): 102% | EGFR % Activity Set2 ([2]; Log[nM] 1.0): 97% | EGFR % Activity Set3 ([2]; Log[nM] 1.0): 96% | EGFR % Activity Set1 ([2]; Log[nM] 1.5): 65% | EGFR % Activity Set2 ([2]; Log[nM] 1.5): 61% | EGFR % Activity Set3 ([2]; Log[nM] 1.5): 64% | EGFR % Activity Set1 ([2]; Log[nM] 2.0): 50% | EGFR % Activity Set2 ([2]; Log[nM] 2.0): 45% | EGFR % Activity Set3 ([2]; Log[nM] 2.0): 52% | EGFR % Activity Set1 ([2]; Log[nM] 2.5): 19% | EGFR % Activity Set2 ([2]; Log[nM] 2.5): 19% | EGFR % Activity Set3 ([2]; Log[nM] 2.5): 22% | EGFR % Activity Set1 ([2]; Log[nM] 3.0): 10% | EGFR % Activity Set2 ([2]; Log[nM] 3.0): 10% | EGFR % Activity Set3 ([2]; Log[nM] 3.0): 12% | EGFR % Activity Set1 ([2]; Log[nM] 3.5): 4% | EGFR % Activity Set2 ([2]; Log[nM] 3.5): 4% | EGFR % Activity Set3 ([2]; Log[nM] 3.5): 4% | EGFR % Activity Set1 ([2]; Log[nM] 4.0): 2% | EGFR % Activity Set2 ([2]; Log[nM] 4.0): 2% | EGFR % Activity Set3 ([2]; Log[nM] 4.0): 2% | EGFR % Activity Set1 ([2]; Log[nM] 4.5): 1% | EGFR % Activity Set2 ([2]; Log[nM] 4.5): 1% | EGFR % Activity Set3 ([2]; Log[nM] 4.5): 1% | EGFR % Activity Set1 ([2]; Log[nM] 5.0): 1% | EGFR % Activity Set2 ([2]; Log[nM] 5.0): 1% | EGFR % Activity Set3 ([2]; Log[nM] 5.0): 1%

Cc1ccc(Nc2ncnc3[nH]ccc23)cc1 [Compound 9, N^4-(4-methylphenyl)-7H-pyrrolo[2,3-d]pyrimidin-4-amine]
IC50 [1, 3]: 5450 ± 360 nM | IC50 [1, 4]: 5400 nM | Aurora A % Activity Set1 ([1]; Log[nM] 0): 101% | Aurora A % Activity Set2 ([1]; Log[nM] 0): 103% | Aurora A % Activity Set3 ([1]; Log[nM] 0): 105% | Aurora A % Activity Set1 ([1]; Log[nM] 1.0): 114% | Aurora A % Activity Set2 ([1]; Log[nM] 1.0): 103% | Aurora A % Activity Set3 ([1]; Log[nM] 1.0): 107% | Aurora A % Activity Set1 ([1]; Log[nM] 1.5): 111% | Aurora A % Activity Set2 ([1]; Log[nM] 1.5): 103% | Aurora A % Activity Set3 ([1]; Log[nM] 1.5): 109% | Aurora A % Activity Set1 ([1]; Log[nM] 2.0): 102% | Aurora A % Activity Set2 ([1]; Log[nM] 2.0): 107% | Aurora A % Activity Set3 ([1]; Log[nM] 2.0): 114% | Aurora A % Activity Set1 ([1]; Log[nM] 2.5): 99% | Aurora A % Activity Set2 ([1]; Log[nM] 2.5): 102% | Aurora A % Activity Set3 ([1]; Log[nM] 2.5): 110% | Aurora A % Activity Set1 ([1]; Log[nM] 3.0): 87% | Aurora A % Activity Set2 ([1]; Log[nM] 3.0): 90% | Aurora A % Activity Set3 ([1]; Log[nM] 3.0): 91% | Aurora A % Activity Set1 ([1]; Log[nM] 3.5): 63% | Aurora A % Activity Set2 ([1]; Log[nM] 3.5): 66% | Aurora A % Activity Set3 ([1]; Log[nM] 3.5): 61% | Aurora A % Activity Set1 ([1]; Log[nM] 4.0): 32% | Aurora A % Activity Set2 ([1]; Log[nM] 4.0): 29% | Aurora A % Activity Set3 ([1]; Log[nM] 4.0): 30% | Aurora A % Activity Set1 ([1]; Log[nM] 4.5): 16% | Aurora A % Activity Set2 ([1]; Log[nM] 4.5): 15% | Aurora A % Activity Set3 ([1]; Log[nM] 4.5): 13% | Aurora A % Activity Set1 ([1]; Log[nM] 5.0): 9% | Aurora A % Activity Set2 ([1]; Log[nM] 5.0): 9% | Aurora A % Activity Set3 ([1]; Log[nM] 5.0): 9% | IC50 [2, 5]: 667 ± 142 nM | IC50 [2, 6]: 693 nM | EGFR % Activity Set1 ([2]; Log[nM] 0): 103% | EGFR % Activity Set2 ([2]; Log[nM] 0): 98% | EGFR % Activity Set3 ([2]; Log[nM] 0): 105% | EGFR % Activity Set1 ([2]; Log[nM] 1.0): 112% | EGFR % Activity Set2 ([2]; Log[nM] 1.0): 109% | EGFR % Activity Set3 ([2]; Log[nM] 1.0): 103% | EGFR % Activity Set1 ([2]; Log[nM] 1.5): 113% | EGFR % Activity Set2 ([2]; Log[nM] 1.5): 108% | EGFR % Activity Set3 ([2]; Log[nM] 1.5): 95% | EGFR % Activity Set1 ([2]; Log[nM] 2.0): 95% | EGFR % Activity Set2 ([2]; Log[nM] 2.0): 88% | EGFR % Activity Set3 ([2]; Log[nM] 2.0): 81% | EGFR % Activity Set1 ([2]; Log[nM] 2.5): 74% | EGFR % Activity Set2 ([2]; Log[nM] 2.5): 63% | EGFR % Activity Set3 ([2]; Log[nM] 2.5): 67% | EGFR % Activity Set1 ([2]; Log[nM] 3.0): 36% | EGFR % Activity Set2 ([2]; Log[nM] 3.0): 35% | EGFR % Activity Set3 ([2]; Log[nM] 3.0): 43% | EGFR % Activity Set1 ([2]; Log[nM] 3.5): 18% | EGFR % Activity Set2 ([2]; Log[nM] 3.5): 16% | EGFR % Activity Set3 ([2]; Log[nM] 3.5): 23% | EGFR % Activity Set1 ([2]; Log[nM] 4.0): 8% | EGFR % Activity Set2 ([2]; Log[nM] 4.0): 7% | EGFR % Activity Set3 ([2]; Log[nM] 4.0): 10% | EGFR % Activity Set1 ([2]; Log[nM] 4.5): 3% | EGFR % Activity Set2 ([2]; Log[nM] 4.5): 4% | EGFR % Activity Set3 ([2]; Log[nM] 4.5): 3% | EGFR % Activity Set1 ([2]; Log[nM] 5.0): 1% | EGFR % Activity Set2 ([2]; Log[nM] 5.0): 1% | EGFR % Activity Set3 ([2]; Log[nM] 5.0): 2%
